The values below come from US12247015B2, “3-amino-4H-benzo[e][1,2,4]thiadiazine 1,1-dioxide derivatives as inhibitors of MRGX2” (Solent Therapeutics, LLC, priority 2019, dated 2025).

Molecules are shown by their SMILES.

hMRGX2 (CHO-K1 cells overexpressing MRGX2), sequence (Q96LB1 whole entry): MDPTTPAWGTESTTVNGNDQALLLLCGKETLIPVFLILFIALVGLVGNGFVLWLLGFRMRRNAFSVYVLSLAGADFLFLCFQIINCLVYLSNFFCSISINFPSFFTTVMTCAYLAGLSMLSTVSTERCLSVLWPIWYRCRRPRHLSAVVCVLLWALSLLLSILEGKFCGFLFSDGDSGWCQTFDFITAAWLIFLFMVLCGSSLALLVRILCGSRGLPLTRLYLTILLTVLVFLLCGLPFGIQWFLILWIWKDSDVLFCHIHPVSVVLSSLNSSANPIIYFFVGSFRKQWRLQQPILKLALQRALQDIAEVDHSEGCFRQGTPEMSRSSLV

The assay concerns the target hMRGX2 (CHO-K1 cells overexpressing MRGX2) (Homo sapiens (Human), UniProt Q96LB1). The assay is described as follows: In vitro inhibition (EC50) of intracellular calcium flux, FLIPR Tetra, substance P stimulation. The class given is cell-based. As to conditions: stimulated with MRGX2 ligand substance P, FLIPR Calcium 5, read-out: hMRGX2 Cellular Potency (pEC50) (converted). The method, then: In Vitro Inhibition (EC50) of Intracellular Calcium Flux
The release of intracellular calcium following stimulation of cells with substance P in the presence or absence of inhibitor compounds was measured using the FLIPR Tetra® system. CHO-K1 cells overexpressing MRGX2 were seeded into 384-well plates (Black clear bottom, TC-treated, Fisher #07-200-655) and incubated overnight to allow for cell attachment. Media was removed, and 1× loading buffer (FLIPR® Calcium 5 assay solution, Molecular Devices, per manufacturer specifications) was added. The plates were incubated at 37° C. for 30 minutes. Test compounds were added to cells (11-point dose response, 10 µM maximum concentration) and fluorescence measured (120 seconds, in real time) using the FLIPR Tetra® system. Immediately following, MRGX2 ligand substance P was added at a final concentration of 1 µM and fluorescence measured (120 seconds, in real time) using the FLIPR Tetra® system. The data for the examples are reported as pEC50.
As to `O=S1(=O)N=C(NCC2CC2)Nc2c(-c3ccnc(F)c3Cl)cccc21` [Example 50, 5-(3-chloro-2-fluoropyridin-4-yl)-3-((cyclopropylmethyl)amino)-4H-benzo[e][1,2,4]thiadiazine 1,1-dioxide], the EC50 was 70.8 nM.

On to `O=S1(=O)N=C(NCc2ncccc2F)Nc2c(-c3ccnc(F)c3Cl)cccc21` [Example 51, 5-(3-chloro-2-fluoropyridin-4-yl)-3-(((3-fluoropyridin-2-yl)methyl)amino)-4H-benzo[e][1,2,4]thiadiazine 1,1-dioxide], for which the EC50 is 19 nM. With `CCNC1=NS(=O)(=O)c2cccc(-c3ccnc(F)c3Cl)c2N1` [Example 52, 5-(3-chloro-2-fluoropyridin-4-yl)-3-(ethylamino)-4H-benzo[e][1,2,4]thiadiazine 1,1-dioxide], the EC50 is 131 nM. For `O=S1(=O)N=C(NCC(F)F)Nc2c(-c3ccnc(F)c3Cl)cccc21` [Example 53, 5-(3-chloro-2-fluoropyridin-4-yl)-3-((2,2-difluoroethyl)amino)-4H-benzo[e][1,2,4]thiadiazine 1,1-dioxide], the EC50 is 575 nM. For `O=S1(=O)N=C(NCc2ccc(F)cc2)Nc2c(-c3ccnc(F)c3Cl)cccc21` [Example 54, 5-(3-chloro-2-fluoropyridin-4-yl)-3-((4-fluorobenzyl)amino)-4H-benzo[e][1,2,4]thiadiazine 1,1-dioxide], the EC50 is 13.2 nM. On to `N#Cc1cnc(CNC2=NS(=O)(=O)c3cccc(-c4ccnc(F)c4Cl)c3N2)s1` [Example 55, 2-(((5-(3-chloro-2-fluoropyridin-4-yl)-1,1-dioxido-4H-benzo[e][1,2,4]thiadiazin-3-yl)amino)methyl)thiazole-5-carbonitrile], for which the EC50 was 136 nM. As for `CNC1=NS(=O)(=O)c2cccc(-c3ccnc(F)c3Cl)c2N1` [Example 56, 5-(3-chloro-2-fluoropyridin-4-yl)-3-(methylamino)-4H-benzo[e][1,2,4]thiadiazine 1,1-dioxide], the figure is 282 nM. As for `CN1CCOC(CNC2=NS(=O)(=O)c3cccc(-c4cccc(F)c4Cl)c3N2)C1` (stereo not drawn) [Example 57, 5-(2-chloro-3-fluorophenyl)-3-(((4-methylmorpholin-2-yl)methyl)amino)-4H-benzo[e][1,2,4]thiadiazine 1,1-dioxide], the figure is 173 nM; as for `CCOC(C)CNC1=NS(=O)(=O)c2cccc(-c3cccc(F)c3Cl)c2N1` (stereo not drawn) [Example 58, 5-(2-chloro-3-fluorophenyl)-3-((2-ethoxypropyl)amino)-4H-benzo[e][1,2,4]thiadiazine 1,1-dioxide], 179 nM.

For `Cc1nn(C)cc1-c1cccc2c1NC(NCc1ccc(Cl)cn1)=NS2(=O)=O` [Example 59, 3-(((5-chloropyridin-2-yl)methyl)amino)-5-(1,3-dimethyl-1H-pyrazol-4-yl)-4H-benzo[e][1,2,4]thiadiazine 1,1-dioxide], the EC50 was 248 nM. As to `COC(C)CNC1=NS(=O)(=O)c2cccc(-c3cn(C)nc3C)c2N1` (stereo not drawn) [Example 60, 5-(1,3-dimethyl-1H-pyrazol-4-yl)-3-((2-methoxypropyl)amino)-4H-benzo[e][1,2,4]thiadiazine 1,1-dioxide], the EC50 is 865 nM. As for `Cc1nn(C)cc1-c1cccc2c1NC(NCC1CCC1)=NS2(=O)=O` [Example 61, 3-((cyclobutylmethyl)amino)-5-(1,3-dimethyl-1H-pyrazol-4-yl)-4H-benzo[e][1,2,4]thiadiazine 1,1-dioxide], the figure is 430 nM; as for `CN(C)C(=O)CNC1=NS(=O)(=O)c2cccc(-c3cccc(F)c3Cl)c2N1` [Example 62, 2-((5-(2-chloro-3-fluorophenyl)-1,1-dioxido-4H-benzol[e][1,2,4]thiadiazin-3-yl)amino)-N,N-dimethylacetamide], 279 nM.

Take `COCCNC1=NS(=O)(=O)c2cccc(-c3ccccc3C3CC3)c2N1` [Example 63, 5-(2-cyclopropylphenyl)-3-((2-methoxyethyl)amino)-4H-benzo[e][1,2,4]thiadiazine 1,1-dioxide]: the EC50 is 953 nM.

Consider `O=S1(=O)N=C(NCc2ccsn2)Nc2c(-c3cccc(F)c3Cl)cccc21` [Example 64, 5-(2-chloro-3-fluorophenyl)-3-((isothiazol-3-ylmethyl)amino)-4H-benzo[e][1,2,4]thiadiazine 1,1-dioxide], for which the EC50 was 15.6 nM. As to `O=S1(=O)N=C(NCCc2ccccn2)Nc2c(-c3cccc(F)c3Cl)cccc21` [Example 67, 5-(2-chloro-3-fluorophenyl)-3-((2-(pyridin-2-yl)ethyl)amino)-4H-benzo[e][1,2,4]thiadiazine 1,1-dioxide], the EC50 is 36.6 nM.

Consider `O=S1(=O)N=C(NCCc2ccncc2)Nc2c(-c3cccc(F)c3Cl)cccc21` [Example 68, 5-(2-chloro-3-fluorophenyl)-3-((2-(pyridin-4-yl)ethyl)amino)-4H-benzo[e][1,2,4]thiadiazine 1,1-dioxide], for which the EC50 was 305 nM. Turning to `O=S1(=O)N=C(NCCc2cccnc2)Nc2c(-c3cccc(F)c3Cl)cccc21` [Example 69, 5-(2-chloro-3-fluorophenyl)-3-((2-(pyridin-3-yl)ethyl)amino)-4H-benzo[e][1,2,4]thiadiazine 1,1-dioxide], the EC50 was 601 nM. For `COc1cccc(CCNC2=NS(=O)(=O)c3cccc(-c4cccc(F)c4Cl)c3N2)c1` [Example 70, 5-(2-chloro-3-fluorophenyl)-3-((3-methoxyphenethyl)amino)-4H-benzo[e][1,2,4]thiadiazine 1,1-dioxide], the EC50 was 57.9 nM. In the case of `COc1ccccc1CCNC1=NS(=O)(=O)c2cccc(-c3cccc(F)c3Cl)c2N1` [Example 71, 5-(2-chloro-3-fluorophenyl)-3-((2-methoxyphenethyl)amino)-4H-benzo[e][1,2,4]thiadiazine 1,1-dioxide], the EC50 was 82.8 nM.

For `COc1ccc(CCNC2=NS(=O)(=O)c3cccc(-c4cccc(F)c4Cl)c3N2)cc1` [Example 72, 5-(2-chloro-3-fluorophenyl)-3-((4-methoxyphenethyl)amino)-4H-benzo[e][1,2,4]thiadiazine 1,1-dioxide], the EC50 is 39.8 nM. Take `O=S1(=O)N=C(NCCC2CCCO2)Nc2c(-c3cccc(F)c3Cl)cccc21` (stereo not drawn) [Example 73, 5-(2-chloro-3-fluorophenyl)-3-((2-(tetrahydrofuran-2-yl)ethyl)amino)-4H-benzo[e][1,2,4]thiadiazine 1,1-dioxide]: the EC50 is 139 nM. Turning to `Cc1cc(NC2=NS(=O)(=O)c3cccc(-c4cccc(F)c4Cl)c3N2)nn1C(C)C` [Example 74, 5-(2-chloro-3-fluorophenyl)-3-((1-isopropyl-5-methyl-1H-pyrazol-3-yl)amino)-4H-benzo[e][1,2,4]thiadiazine 1,1-dioxide], the EC50 is 746 nM. For `O=S1(=O)N=C(NCc2ccc(F)cc2)Nc2c(-c3cc(F)cc(F)c3)cccc21` [Example 75, 5-(3,5-difluorophenyl)-3-((4-fluorobenzyl)amino)-4H-benzo[e][1,2,4]thiadiazine 1,1-dioxide], the EC50 is 34.6 nM. As for `O=S1(=O)N=C(NCc2cc(F)ccc2F)Nc2c(-c3cc(F)cc(F)c3)cccc21` [Example 76, 3-((2,5-difluorobenzyl)amino)-5-(3,5-difluorophenyl)-4H-benzo[e][1,2,4]thiadiazine 1,1-dioxide], the figure is 34.8 nM; as for `O=S1(=O)N=C(NCc2ccccc2F)Nc2c(-c3cc(F)cc(F)c3)cccc21` [Example 77, 5-(3,5-difluorophenyl)-3-((2-fluorobenzyl)amino)-4H-benzo[e][1,2,4]thiadiazine 1,1-dioxide], 34.9 nM; as for `O=S1(=O)N=C(NCc2c(F)cccc2F)Nc2c(-c3cc(F)cc(F)c3)cccc21` [Example 78, 3-((2,6-difluorobenzyl)amino)-5-(3,5-difluorophenyl)-4H-benzo[e][1,2,4]thiadiazine 1,1-dioxide], 224 nM.

Take `Cc1cccc(CNC2=NS(=O)(=O)c3cccc(-c4cc(F)cc(F)c4)c3N2)n1` [Example 79, 5-(3,5-difluorophenyl)-3-(((6-methylpyridin-2-yl)methyl)amino)-4H-benzo[e][1,2,4]thiadiazine 1,1-dioxide]: the EC50 is 368 nM.

Regarding `O=S1(=O)N=C(NCCc2ccccn2)Nc2c(-c3cc(F)cc(F)c3)cccc21` [Example 80, 5-(3,5-difluorophenyl)-3-((2-(pyridin-2-yl)ethyl)amino)-4H-benzo[e][1,2,4]thiadiazine 1,1-dioxide], the EC50 is 897 nM. As for `O=S1(=O)N=C(NCC2CCC2)Nc2c(-c3cc(F)cc(F)c3)cccc21` [Example 81, 3-((cyclobutylmethyl)amino)-5-(3,5-difluorophenyl)-4H-benzo[e][1,2,4]thiadiazine 1,1-dioxide], the EC50 was 384 nM. In the case of `O=S1(=O)N=C(NCc2ccncc2)Nc2c(-c3cc(F)cc(F)c3)cccc21` [Example 82, 5-(3,5-difluorophenyl)-3-((pyridin-4-ylmethyl)amino)-4H-benzo[e][1,2,4]thiadiazine 1,1-dioxide], the EC50 is 1010 nM. For `O=S1(=O)N=C(NCc2ccccn2)Nc2c(-c3cc(F)cc(F)c3)cccc21` [Example 83, 5-(3,5-difluorophenyl)-3-((pyridin-2-ylmethyl)amino)-4H-benzo[e][1,2,4]thiadiazine 1,1-dioxide], the EC50 was 423 nM. Consider `CCC(CNC1=NS(=O)(=O)c2cccc(-c3cc(F)cc(F)c3)c2N1)OC` (stereo not drawn) [Example 87, 5-(3,5-difluorophenyl)-3-((2-methoxybutyl)amino)-4H-benzo[e][1,2,4]thiadiazine 1,1-dioxide], for which the EC50 was 240 nM.
